“Also recorded” adds a separate entry of the source.
Columns and labels:
[1] = system: c-fos-GFP expression in the transgenic c-fos-GFP mouse brain; experiment: c-fos-GFP induction in transgenic c-fos-GFP mouse brain, whole-mount two-photon microscopy (Example 3); format: in vivo; conditions: three hours, vs saline, one animal per treatment
Text: High-throughput whole-brain imaging of an immediate early gene (IEG) induction was used in transgenic “indicator” mice that express GFP from specific IEG promoters, such as c-fos and Arc promoters in c-fos-GFP and Arc-GFP transgenic mice ((Barth et al., J Neurosci 24, 6466-6475 (2004); Grinevich et al., Journal of Neuroscience Methods 184, 25-36 (2009)). In these mice, GFP represents a readily detectable surrogate for the expression of the native gene.
Whole-mount two-photon microscopy was used for automated mouse brain imaging. The instrument works as follows: First, a fixed mouse brain embedded in an agar block is placed in a water bath on top of a computer controlled x-y-z stage. The stage moves the brain under the objective, so that the top is imaged as a mosaic of individual fields of view (“tiles”). […]
To validate the entire pipeline of data processing, the trained neural networks were applied to extract c-fos-GFP signal in brains of two mice, one injected with saline and the other with haloperidol at 1 mg/kg (FIG. 27). Three hours later, the mice were euthanized, their brains imaged by whole-mount two-photon microscopy, and c-fos-GFP-positive cells were computationally detected and visualized as a three-dimensional representation of intensity centroids (FIG. 17).

[2] = system: c-fos-GFP expression in the whole mouse brain; experiment: c-fos-GFP pharmacomap by STP tomography, haloperidol vs saline (Example 5); format: in vivo; conditions: 3 hours
Text: This example analyzes the effects of antipsychotic drugs on neural circuit activity in the whole mouse brain. The method comprises the following steps: (1) an automated whole-brain microscopy, STP tomography, was used to image brains of c-fos-GFP mice, which express GFP as a marker for native c-fos; (2) the distribution of the activated c-fos-GFP-positive neurons was computationally detected by convolutional neural networks; (3) the processed datasets were warped and registered in a 3D reference brain and voxelized for statistical comparisons.
Transgenic c-fos-GFP mice (Reijmers et al., Science 317:1230-1233 (2007)), expressing GFP as a surrogate marker for native c-fos, was injected with intraperitoneally with haloperidol (1 mg/kg) or saline (control). The mice were returned to their home cage and left undisturbed for 3 hours, a time period needed for the induction and fluorophore maturation of c-fos-GFP. Next, the mice were deeply anesthetized and euthanized by intra-cardiac perfusion with saline and paraformaldehyde for brain fixation. The mice were decapitated and the brain was extracted, postfixed and embedded in agar for STP tomography. Three PMTs (C1-C3) can be used for multi-color imaging. […]

[3] = system: c-fos-GFP expression in the mouse brain; experiment: Haloperidol dose-response c-fos-GFP pharmacomaps (Example 10); format: in vivo
Text: For example, before injection, male mice (8 weeks old) are single-housed for five days in order to limit the variability of the baseline c-fos-GFP expression.
For example, the datasets are represented as the number of centroids (c-fos-GFP cells) lying within an evenly spaced grid of 450×650×300 elements (voxels), each of size 20×20×50 microns.
Drugs have different effects and side effects at different dosages.

[4] = system: c-fos-GFP expression in the mouse brain; experiment: c-fos-GFP pharmacomaps of three antipsychotics at a moderate dosage (Example 9); conditions: 5 mouse brains per drug
[5] = haloperidol 0.25, risperidone 1.0, aripiprazole 1.0 mg/kg, vs saline-injected control

O=C(CCCN1CCC(O)(c2ccc(Cl)cc2)CC1)c1ccc(F)cc1 [haloperidol]
c-fos-GFP-positive cells per coronal section, caudal sections ([1]; 1 mg/kg, preliminary quantitation): increased numbers of c-fos-GFP-positive cells in many caudal coronal sections; also recorded: broad distribution of haloperidol-evoked c-fos-GFP induction in the caudal sections | brain regions with c-fos-GFP induction ([1]; i.p. 1 mg/kg): expected induction of c-fos-GFP in the striatum and lateral septum; also recorded: expected strong induction of c-fos-GFP in the caudate putamen; also recorded: Strong labeling is induced in striatum (A) and lateral septum (B) | previously identified brain regions detected as statistically different vs saline ([2]; 1 mg/kg i.p., n=7 vs saline n=7, negative binomial regressions, FDR 0.01): Medial prefrontal Cx, Cingulate Cx, Piriform Cx, Major Islands of Calleja, Nc Accumbens (whole, shell, core), Lateral septum, Striatum (whole), Medial preoptic area, Paraventricular nucleus, Bed nucleus of stria terminalis, Medial thalamus | number of c-fos-GFP cells in the brain (c-fos-GFP pharmacomap) ([2]; 1 mg/kg intraperitoneally, saline brain 176,771): 545,838 c-fos-GFP cells | brain regions activated (pharmacomap A) ([3]; 0.05 mg/kg (low)): activated dorsomedial hypothalamus (HYP), ACB, and CP | brain regions activated (pharmacomap B) ([3]; 0.25 mg/kg (medium)): activated the same structures as shown in pharmacomap A, plus OT, LS and PL | brain regions activated (pharmacomap C) ([3]; 1.0 mg/kg (high)): more widespread activation, including, in addition, prelimbic (PL), infralimbic (IL), and lateral entorhinal (ENT) areas, BST, central amygdala (CEA) and PVT | numbers of activated areas across dosages ([3]; 0.05, 0.25 and 1.0 mg/kg): increasing numbers of activated areas observed with increasing dosage | strength of c-Fos induction within commonly activated regions (caudate putamen and nucleus accumbens) ([3]; 0.05, 0.25 and 1.0 mg/kg, data not shown): significantly increased with increasing dosage | brain regions activated (pharmacomap) ([4]; haloperidol 0.25 mg/kg, risperidone 1.0 mg/kg, aripiprazole 1.0 mg/kg, vs saline): activated a major portion of the caudate putamen (CP) and nucleus accumbens (ACB), as well as the olfactory tubercle (OT), prelimbic cortex (PL), lateral septum (LS) and dorsomedial hypothalamus (HYP) | c-fos-GFP activation, Anterior cingulate cortex (ACAd) [4, 5]: up | c-fos-GFP activation, Anterior cingulate cortex (ACAv) [4, 5]: 0 | c-fos-GFP activation, Basal, Central, Cortic. Amydgala (AMG) [4, 5]: 0 | c-fos-GFP activation, Bed nucleus of Stria Terminalis (BST) [4, 5]: 0 | c-fos-GFP activation, Caudate-putamen (CP, dorso-medial) [4, 5]: up | c-fos-GFP activation, Caudate-putamen (CP, ventro-medial) [4, 5]: up | c-fos-GFP activation, Caudoputamen (CP, dorsolateral) [4, 5]: up | c-fos-GFP activation, Caudoputamen (CP, ventrolateral) [4, 5]: up | c-fos-GFP activation, Central medial thalamic nucleus [4, 5]: 0 | c-fos-GFP activation, Claustrum (CLA) [4, 5]: 0 | c-fos-GFP activation, Dorsomedial hypoth. (HYP) [4, 5]: up | c-fos-GFP activation, Gostatory Cx (GU) [4, 5]: 0 | c-fos-GFP activation, Hippocampus: CA1, CA2, CA3 (HF) [4, 5]: 0 | c-fos-GFP activation, Hippocampus: DG [4, 5]: 0 | c-fos-GFP activation, Hypothalamus, ventromedial nuclei [4, 5]: 0 | c-fos-GFP activation, Infralimbic cortex (IL) [4, 5]: up | c-fos-GFP activation, Insular area, agranular [4, 5]: 0 | c-fos-GFP activation, Lateral Septum (LS) [4, 5]: up | c-fos-GFP activation, Lateral Spetal Nucl, dorsal part [4, 5]: 0 | c-fos-GFP activation, Midline Thalamus (Nucl Reuniens, RE) [4, 5]: 0 | c-fos-GFP activation, Midline Thalamus (PVT) [4, 5]: 0 | c-fos-GFP activation, Motor area, primary (MOp) [4, 5]: 0 | c-fos-GFP activation, Motor area, secondary (MOs) [4, 5]: 0 | c-fos-GFP activation, Nucleus Accumbens (ACB), core [4, 5]: up | c-fos-GFP activation, Nucleus Accumbens (ACB), shell [4, 5]: up | c-fos-GFP activation, Nucleus Accumbens (ACB), whole [4, 5]: up | c-fos-GFP activation, Olfactory tubercle (OT) [4, 5]: up | c-fos-GFP activation, Orbital cortex ventral (VO) [4, 5]: 0 | c-fos-GFP activation, Orbital cx (ORB), lateral [4, 5]: 0 | c-fos-GFP activation, Orbital cx (ORB), medial [4, 5]: up | c-fos-GFP activation, Piriform cx (PIR) [4, 5]: 0 | c-fos-GFP activation, Prelimbic cx (PL) [4, 5]: up | c-fos-GFP activation, RSPd, v, d and agl [4, 5]: 0 | c-fos-GFP activation, Red nucleus (RN) [4, 5]: 0 | c-fos-GFP activation, Somatosensory cx, primary [4, 5]: 0 | c-fos-GFP activation, Striatum, ventro-lateral [4, 5]: 0 | c-fos-GFP activation, Superior Colliculus (SC) [4, 5]: 0 | c-fos-GFP activation, Temporal cortex [4, 5]: 0 | c-fos-GFP activation, Ventromedial Thalamus (caudally) [4, 5]: 0 | c-fos-GFP activation, Zona Inserta [4, 5]: 0

Reference: patent US20140297199A1, “DRUG SCREENING METHOD AND USES THEREOF” (COLD SPRING HARBOR LABORATORY, priority 2011, published 2014)
